{"source": "patent US20230135152A1", "about": "(ACURASTEM INCORPORATED, priority 2020, published 2023)", "target": "PIKFYVE (Homo sapiens, UniProt Q9Y2I7)", "sequence (Q9Y2I7 whole entry)": "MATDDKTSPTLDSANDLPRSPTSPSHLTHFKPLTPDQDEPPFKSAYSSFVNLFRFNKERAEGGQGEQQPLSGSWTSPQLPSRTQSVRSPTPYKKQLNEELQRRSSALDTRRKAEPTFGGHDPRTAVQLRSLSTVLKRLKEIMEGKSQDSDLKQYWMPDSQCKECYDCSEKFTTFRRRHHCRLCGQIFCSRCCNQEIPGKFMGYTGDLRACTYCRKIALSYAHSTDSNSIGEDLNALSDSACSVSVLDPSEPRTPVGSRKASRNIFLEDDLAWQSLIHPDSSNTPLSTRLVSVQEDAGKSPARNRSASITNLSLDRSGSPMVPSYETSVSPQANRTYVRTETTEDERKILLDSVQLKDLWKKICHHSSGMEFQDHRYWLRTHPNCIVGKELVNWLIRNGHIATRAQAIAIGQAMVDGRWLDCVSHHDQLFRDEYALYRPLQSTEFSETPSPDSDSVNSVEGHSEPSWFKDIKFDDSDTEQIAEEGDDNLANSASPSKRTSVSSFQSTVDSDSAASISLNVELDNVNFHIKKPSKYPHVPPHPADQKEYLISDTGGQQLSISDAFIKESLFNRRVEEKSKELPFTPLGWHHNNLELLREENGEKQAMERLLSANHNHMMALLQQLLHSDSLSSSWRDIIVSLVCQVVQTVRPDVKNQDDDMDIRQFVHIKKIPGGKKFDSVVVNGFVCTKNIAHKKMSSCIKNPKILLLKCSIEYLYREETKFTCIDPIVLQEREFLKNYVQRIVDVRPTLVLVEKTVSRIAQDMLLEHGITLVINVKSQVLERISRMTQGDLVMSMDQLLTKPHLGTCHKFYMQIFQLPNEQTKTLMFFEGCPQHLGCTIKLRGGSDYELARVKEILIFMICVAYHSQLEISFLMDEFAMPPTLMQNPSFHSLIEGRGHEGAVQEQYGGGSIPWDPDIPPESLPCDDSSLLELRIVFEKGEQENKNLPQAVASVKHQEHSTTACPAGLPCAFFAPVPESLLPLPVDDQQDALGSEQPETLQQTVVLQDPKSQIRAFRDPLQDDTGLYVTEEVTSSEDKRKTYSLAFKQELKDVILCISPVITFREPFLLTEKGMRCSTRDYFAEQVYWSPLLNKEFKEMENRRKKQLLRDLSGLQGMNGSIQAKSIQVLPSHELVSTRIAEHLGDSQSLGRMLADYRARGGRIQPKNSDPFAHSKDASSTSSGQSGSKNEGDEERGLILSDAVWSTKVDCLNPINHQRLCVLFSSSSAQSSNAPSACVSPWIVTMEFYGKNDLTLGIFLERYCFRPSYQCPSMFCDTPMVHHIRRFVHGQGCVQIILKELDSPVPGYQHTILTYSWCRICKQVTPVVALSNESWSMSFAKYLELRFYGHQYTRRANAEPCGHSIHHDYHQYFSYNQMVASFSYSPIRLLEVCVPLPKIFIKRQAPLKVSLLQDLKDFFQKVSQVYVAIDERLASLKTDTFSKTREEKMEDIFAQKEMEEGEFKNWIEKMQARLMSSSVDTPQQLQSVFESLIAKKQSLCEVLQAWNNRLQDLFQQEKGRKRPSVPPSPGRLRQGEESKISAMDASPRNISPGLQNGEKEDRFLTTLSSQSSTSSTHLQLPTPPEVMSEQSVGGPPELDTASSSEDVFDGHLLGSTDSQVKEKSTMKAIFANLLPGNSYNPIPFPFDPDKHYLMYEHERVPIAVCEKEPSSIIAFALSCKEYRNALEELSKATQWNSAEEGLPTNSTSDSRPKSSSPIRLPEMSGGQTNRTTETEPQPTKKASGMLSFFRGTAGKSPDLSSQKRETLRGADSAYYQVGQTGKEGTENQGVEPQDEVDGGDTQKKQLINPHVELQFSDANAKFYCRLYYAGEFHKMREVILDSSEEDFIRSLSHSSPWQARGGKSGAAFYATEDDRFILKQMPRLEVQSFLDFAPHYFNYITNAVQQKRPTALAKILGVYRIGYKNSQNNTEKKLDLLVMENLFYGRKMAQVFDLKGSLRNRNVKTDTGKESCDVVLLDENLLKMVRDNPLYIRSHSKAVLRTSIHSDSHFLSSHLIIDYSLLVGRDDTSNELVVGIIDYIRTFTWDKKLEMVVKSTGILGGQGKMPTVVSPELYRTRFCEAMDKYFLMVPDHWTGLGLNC", "test": "PIKFYVE assay (luciferase ADP-Glo kinase assay, Promega)", "assay_type": "biochemical", "experimental": "The activity of Compounds 1-20 was measured using a PIKFYVE assay (luciferase ADP-Glo kinase assay available from Promega Corp. of Madison, Wis.).\nThe activity of Compounds 39-90 was also measured using a PIKFYVE assay (luciferase ADP-Glo kinase assay available from Promega Corp. of Madison, Wis.).\nThe activity of Compounds 93-347 was also measured using a PIKFYVE assay (luciferase ADP-Glo kinase assay available from Promega Corp. of Madison, Wis.).", "note": "Counter-ions that a name gives are not always drawn.", "data": [{"smiles": "CO[C@H](CO)c1nc(N2CCOCC2)cc(-n2nc(-c3ccccc3)cc2C2CC2)n1", "note": "(single isomer, unassigned) [Compound 256]", "values": [{"measurement": "IC50", "setting": "Table 3", "result": "10 to 100", "unit": "nM"}]}, {"smiles": "CO[C@@H](CO)c1nc(N2CCOCC2)cc(-n2nc(-c3ccccc3)cc2C2CC2)n1", "note": "(single isomer, unassigned) [Compound 257]", "values": [{"measurement": "IC50", "setting": "Table 3", "result": "10 to 100", "unit": "nM"}]}, {"smiles": "CO[C@H](C)c1cccc(-c2ccn(-c3cc(N4CCOCC4)nc(OCCc4cnn(C)c4)n3)n2)c1", "note": "(single isomer, unassigned) [Compound 340]", "values": [{"measurement": "IC50", "setting": "Table 3", "result": "10 to 100", "unit": "nM"}]}, {"smiles": "CO[C@@H](CO)c1nc(N2CCOCC2)cc(-n2ccc(-c3cc(C)ccc3C)n2)n1", "note": "(single isomer, unassigned) [Compound 342]", "values": [{"measurement": "IC50", "setting": "Table 3", "result": "10 to 100", "unit": "nM"}]}, {"smiles": "CO[C@H](CO)c1nc(N2CCOCC2)cc(-n2ccc(-c3cc(C)ccc3C)n2)n1", "note": "(single isomer, unassigned) [Compound 343]", "values": [{"measurement": "IC50", "setting": "Table 3", "result": "10 to 100", "unit": "nM"}]}, {"smiles": "COCCSc1cc(-n2ccc(-c3cccc(C)c3)n2)nc(OCC2CCCO2)n1", "note": "(stereo not drawn) [Compound 18, 4-((2-methoxyethyl)thio)-2-((tetrahydrofuran-2-yl)methoxy)-6-(3-(m-tolyl)-1H-pyrazol-1-yl)pyrimidine]", "values": [{"measurement": "IC50", "setting": "Table 1", "result": "1000 to 10000", "unit": "nM"}]}, {"smiles": "Clc1ccc(-c2ccn(-c3cc(N4CCOCC4)nc(OCCc4ccccn4)n3)n2)cc1", "note": "[Compound 40]", "values": [{"measurement": "IC50", "setting": "Table 2", "result": "101 to 1000", "unit": "nM"}]}, {"smiles": "Fc1ccc(-c2cnn(-c3cc(N4CC[C@H]5OCC[C@H]54)nc(OCCc4ccccn4)n3)c2)cc1", "note": "[Compound 41]", "values": [{"measurement": "IC50", "setting": "Table 2", "result": "1000 to 10000", "unit": "nM"}]}, {"smiles": "Cc1cccc(-c2ccn(-c3cc(N4CCOCC4)nc(Cc4ccccc4)n3)n2)c1", "note": "[Compound 42]", "values": [{"measurement": "IC50", "setting": "Table 2", "result": "101 to 1000", "unit": "nM"}]}, {"smiles": "c1cc(-c2cc(N3CCOCC3)nc(OCC3CCCO3)n2)n[nH]1", "note": "(stereo not drawn) [Compound 45, 4-(6-(1H-pyrazol-3-yl)-2-((tetrahydrofuran-2-yl)methoxy)pyrimidin-4-yl)morpholine]", "values": [{"measurement": "IC50", "setting": "Table 2", "result": "101 to 1000", "unit": "nM"}]}, {"smiles": "Cc1cccc(-c2ccn(-c3cc(N4CCOCC4)nc(NCCc4ccccn4)n3)n2)c1", "note": "[Compound 46, 4-morpholino-N-(2-(pyridin-2-yl)ethyl)-6-(3-(m-tolyl)-1H-pyrazol-1-yl)pyrimidin-2-amine]", "values": [{"measurement": "IC50", "setting": "Table 2", "result": "5 to 100", "unit": "nM"}]}, {"smiles": "Cc1cccc(-c2ccn(-c3nc(NCCc4cnccn4)cc(N4CCOCC4)n3)n2)c1", "note": "[Compound 47]", "values": [{"measurement": "IC50", "setting": "Table 2", "result": "5 to 100", "unit": "nM"}]}, {"smiles": "Cc1cccc(-c2ccn(-c3cc(N4CC[C@H]5OCC[C@H]54)nc(C(O)CO)n3)n2)c1", "note": "(stereo partly drawn) [Compound 48]", "values": [{"measurement": "IC50", "setting": "Table 2", "result": "101 to 1000", "unit": "nM"}]}, {"smiles": "COCC(O)c1nc(N2CCOCC2)cc(-n2ccc(-c3cccc(C)c3)n2)n1", "note": "(stereo not drawn) [Compound 49]", "values": [{"measurement": "IC50", "setting": "Table 2", "result": "5 to 100", "unit": "nM"}]}, {"smiles": "COC(CO)c1nc(N2CCOCC2)cc(-n2ccc(-c3cccc(C)c3)n2)n1", "note": "(stereo not drawn) [Compound 50]", "values": [{"measurement": "IC50", "setting": "Table 2", "result": "< 5", "unit": "nM"}]}, {"smiles": "CC(C)(C)c1ccn(-c2cc(N3CCOCC3)nc(OCC(O)CO)n2)n1", "note": "(stereo not drawn) [Compound 51]", "values": [{"measurement": "IC50", "setting": "Table 2", "result": "1000 to 10000", "unit": "nM"}]}, {"smiles": "OCC(O)COc1nc(N2CCOCC2)cc(-n2cc3ccccc3n2)n1", "note": "(stereo not drawn) [Compound 52]", "values": [{"measurement": "IC50", "setting": "Table 2", "result": "101 to 1000", "unit": "nM"}]}, {"smiles": "OCC(O)COc1nc(N2CCOCC2)cc(-n2ncc3ccccc32)n1", "note": "(stereo not drawn) [Compound 53]", "values": [{"measurement": "IC50", "setting": "Table 2", "result": "101 to 1000", "unit": "nM"}]}, {"smiles": "Cc1cn(-c2cc(N3CCOCC3)nc(OCCc3cnn(C)c3)n2)nc1-c1ccccc1", "note": "[Compound 63, 4-(2-(2-(1-methyl-1H-pyrazol-4-yl)ethoxy)-6-(4-methyl-3-phenyl-1H-pyrazol-1-yl)pyrimidin-4-yl)morpholine]", "values": [{"measurement": "IC50", "setting": "Table 2", "result": "101 to 1000", "unit": "nM"}]}, {"smiles": "Cc1cccc(-c2ccn(-c3cc(N4CCOCC4)nc(NC(=O)Cc4cnn(C)c4)n3)n2)c1", "note": "[Compound 65]", "values": [{"measurement": "IC50", "setting": "Table 2", "result": "< 5", "unit": "nM"}]}, {"smiles": "Cc1cccc(-c2ccn(-c3cc(N4CCOCC4)nc(OCC4(C)COC4)n3)n2)c1", "note": "[Compound 67]", "values": [{"measurement": "IC50", "setting": "Table 2", "result": "< 5", "unit": "nM"}]}, {"smiles": "Cn1cc(CCOc2nc(N3CCOCC3)cc(-n3ccc(-c4ccccc4)n3)n2)cn1", "note": "[Compound 73]", "values": [{"measurement": "IC50", "setting": "Table 2", "result": "< 5", "unit": "nM"}]}, {"smiles": "OCc1nc(N2CCOCC2)cc(-n2ccc(-c3ccccc3)n2)n1", "note": "[Compound 84]", "values": [{"measurement": "IC50", "setting": "Table 2", "result": "5 to 100", "unit": "nM"}]}, {"smiles": "Cn1cc(CCOc2nc(N3CCOCC3)cc(-n3ccc(-c4cccc(CO)c4)n3)n2)cn1", "note": "[Compound 89]", "values": [{"measurement": "IC50", "setting": "Table 2", "result": "< 5", "unit": "nM"}]}, {"smiles": "Cc1cccc(-c2ccn(-c3cc(N4CCOCC4)nc(N(C)CCc4ccccn4)n3)n2)c1", "note": "[Compound 91, N-methyl-4-morpholino-N-(2-(pyridin-2-yl)ethyl)-6-(3-(m-tolyl)-1H-pyrazol-1-yl)pyrimidin-2-amine]", "values": [{"measurement": "IC50", "setting": "Table 3", "result": "3 to 10", "unit": "nM"}]}, {"smiles": "Cc1cccc(-c2ccn(-c3cc(N4CCOCC4)nc(OCCc4ccccn4)n3)n2)c1", "note": "[Compound 92, 4-(2-(2-(pyridin-2-yl)ethoxy)-6-(3-(m-tolyl)-1H-pyrazol-1-yl)pyrimidin-4-yl)morpholine]", "values": [{"measurement": "IC50", "setting": "Table 3", "result": "3 to 10", "unit": "nM"}]}, {"smiles": "Cc1cccc(-c2ccn(-c3cc(N4CC[C@H]5OCC[C@H]54)nc(C(O)CO)n3)n2)c1", "note": "(stereo partly drawn) [Compound 151, 1-(4-((3aR,6aR)-hexahydro-4H-furo[3,2-b]pyrrol-4-yl)-6-(3-(m-tolyl)-1H-pyrazol-1-yl)pyrimidin-2-yl)ethane-1,2-diol]", "values": [{"measurement": "IC50", "setting": "Table 3", "result": "10 to 100", "unit": "nM"}]}, {"smiles": "Cn1cc(CCOc2nc(N3CCOCC3)cc(-n3ccc(C4CCC4)n3)n2)cn1", "note": "[Compound 192, 4-(6-(3-cyclobutyl-1H-pyrazol-1-yl)-2-(2-(1-methyl-1H-pyrazol-4-yl)ethoxy)pyrimidin-4-yl)morpholine]", "values": [{"measurement": "IC50", "setting": "Table 3", "result": "100 to 5000", "unit": "nM"}]}, {"smiles": "Cn1cc(CCOc2nc(N3CCOCC3)cc(-n3ccc(C4CCCCC4)n3)n2)cn1", "note": "[Compound 196, 4-(6-(3-cyclohexyl-1H-pyrazol-1-yl)-2-(2-(1-methyl-1H-pyrazol-4-yl)ethoxy)pyrimidin-4-yl)morpholine]", "values": [{"measurement": "IC50", "setting": "Table 3", "result": "> 5000", "unit": "nM"}]}, {"smiles": "CN(C)Cc1cc(-c2ccccc2)nn1-c1cc(N2CCOCC2)nc(OCC2(C)COC2)n1", "note": "[Compound 207, N,N-dimethyl-1-(1-(2-((3-methyloxetan-3-yl)methoxy)-6-morpholinopyrimidin-4-yl)-3-phenyl-1H-pyrazol-5-yl)methanamine]", "values": [{"measurement": "IC50", "setting": "Table 3", "result": "10 to 100", "unit": "nM"}]}, {"smiles": "Cn1cc(CCOc2nc(Oc3cc(-c4ccccc4)n(C)n3)cc(N3CCOCC3)n2)cn1", "note": "[Compound 213, 4-(2-(2-(1-methyl-1H-pyrazol-4-yl)ethoxy)-6-((1-methyl-5-phenyl-1H-pyrazol-3-yl)oxy)pyrimidin-4-yl)morpholine]", "values": [{"measurement": "IC50", "setting": "Table 3", "result": "100 to 5000", "unit": "nM"}]}, {"smiles": "CN(C)C(=O)c1cc(-c2ccccc2)nn1-c1cc(N2CCOCC2)nc(OCCc2cnn(C)c2)n1", "note": "[Compound 222, N,N-dimethyl-1-(2-(2-(1-methyl-1H-pyrazol-4-yl)ethoxy)-6-morpholinopyrimidin-4-yl)-3-phenyl-1H-pyrazole-5-carboxamide]", "values": [{"measurement": "IC50", "setting": "Table 3", "result": "100 to 5000", "unit": "nM"}]}, {"smiles": "Cc1cccc(-c2ccn(-c3nc4c(c(N5CCOCC5)n3)CN(CCc3ccn(C)n3)C4)n2)c1", "note": "[Compound 239, 4-(6-(2-(1-methyl-1H-pyrazol-3-yl)ethyl)-2-(3-(m-tolyl)-1H-pyrazol-1-yl)-6,7-dihydro-5H-pyrrolo[3,4-d]pyrimidin-4-yl)morpholine hydrochloride]", "values": [{"measurement": "IC50", "setting": "Table 3", "result": "10 to 100", "unit": "nM"}]}, {"smiles": "Cc1cc(-c2ccccc2)nn1-c1nc2c(c(N3CCOCC3)n1)CN(CCc1ccn(C)n1)C2", "note": "[Compound 240, 4-(6-(2-(1-methyl-1H-pyrazol-3-yl)ethyl)-2-(5-methyl-3-phenyl-1H-pyrazol-1-yl)-6,7-dihydro-5H-pyrrolo[3,4-d]pyrimidin-4-yl)morpholine]", "values": [{"measurement": "IC50", "setting": "Table 3", "result": "100 to 5000", "unit": "nM"}]}, {"smiles": "Cc1cc(-c2ccccc2)nn1-c1cc(N2CCOCC2)c2[nH]ccc2n1", "note": "[Compound 243, 4-(5-(5-methyl-3-phenyl-1H-pyrazol-1-yl)-1H-pyrrolo[3,2-b]pyridin-7-yl)morpholine]", "values": [{"measurement": "IC50", "setting": "Table 3", "result": "100 to 5000", "unit": "nM"}]}, {"smiles": "Cn1cc(CCOc2nc(N3CCOCC3)cc(-n3ccc(-c4cccc5c4OCCN5)n3)n2)cn1", "note": "[Compound 244, 8-(1-(2-(2-(1-methyl-1H-pyrazol-4-yl)ethoxy)-6-morpholinopyrimidin-4-yl)-1H-pyrazol-3-yl)-3,4-dihydro-2H-benzo[b][1,4]oxazine]", "values": [{"measurement": "IC50", "setting": "Table 3", "result": "10 to 100", "unit": "nM"}]}]}
